Experimental data taken from the CheMixHub viscosity set.

Experiment: xn = mol fraction of the nth substance listed

Oc1ccccc1 + CN(C)c1ccccc1
viscosity [mPa·s], 101 kPa
Conditions | 293.15 K | 302.95 K | 313.35 K
x1 = 0.0998 | – | 1.351 | 1.159
x1 = 0.114 | 1.684 | – | –
x1 = 0.2041 | – | 1.629 | 1.354
x1 = 0.2122 | 2.045 | – | –
x1 = 0.2884 | 2.415 | – | –
x1 = 0.2958 | – | 1.936 | 1.57
x1 = 0.385 | – | 2.315 | 1.84
x1 = 0.3889 | 3.085 | – | –
x1 = 0.4659 | 3.77 | – | –
x1 = 0.477 | – | 2.83 | 2.185
x1 = 0.5458 | 4.7 | – | –
x1 = 0.5549 | – | 3.33 | 2.51
x1 = 0.6187 | 5.64 | – | –
x1 = 0.6224 | – | 3.93 | 2.855
x1 = 0.6851 | 6.75 | – | –
x1 = 0.6955 | – | 4.705 | 3.34
x1 = 0.75 | 8.01 | – | –
x1 = 0.7591 | – | 5.325 | 3.715
x1 = 0.8215 | 9.4 | – | –
x1 = 0.8274 | – | 6.025 | 4.15
x1 = 0.8827 | 10.3 | – | –
x1 = 0.8884 | – | 6.48 | 4.4
x1 = 0.9428 | 10.87 | – | –
x1 = 0.9463 | – | 6.86 | 4.59

OC(C(F)(F)F)C(F)(F)F + CC(C)=O
298.15 K, 101 kPa
Conditions | viscosity [mPa·s]
x2 = 0.2 | 1.35
x2 = 0.4 | 0.964
x2 = 0.5 | 0.838
x2 = 0.6 | 0.658
x2 = 0.8 | 0.45
x2 = 0.9 | 0.369
x2 = 0.95 | 0.336

Oc1ccccc1 + C1COCCO1
308.15 K, 101 kPa
Conditions | viscosity [mPa·s]
x2 = 0.1 | 4.829
x2 = 0.2 | 4.471
x2 = 0.3 | 3.888
x2 = 0.4 | 3.179
x2 = 0.5 | 2.568
x2 = 0.6 | 2.062
x2 = 0.7 | 1.664
x2 = 0.8 | 1.371
x2 = 0.9 | 1.141

COCCOCCOC + CCOC(C)=O
viscosity [mPa·s], 101.33 kPa
Conditions | x1 = 0.1016 | x1 = 0.2005 | x1 = 0.3016 | x1 = 0.4007 | x1 = 0.4999 | x1 = 0.6005 | x1 = 0.6994 | x1 = 0.8013 | x1 = 0.8999
298.15 K | 0.477 | 0.527 | 0.579 | 0.633 | 0.69 | 0.748 | 0.815 | 0.867 | 0.92
303.15 K | 0.451 | 0.497 | 0.546 | 0.594 | 0.645 | 0.698 | 0.75 | 0.807 | 0.854
308.15 K | 0.428 | 0.469 | 0.513 | 0.558 | 0.604 | 0.653 | 0.706 | 0.748 | 0.794
313.15 K | 0.406 | 0.445 | 0.485 | 0.526 | 0.569 | 0.612 | 0.659 | 0.7 | 0.74
318.15 K | 0.385 | 0.421 | 0.459 | 0.496 | 0.535 | 0.575 | 0.616 | 0.653 | 0.689

COCCOCCOC + O
Conditions | viscosity [mPa·s]
298.15 K, 101 kPa, x1 = 0.021 | 1.36
298.15 K, 101 kPa, x1 = 0.04611 | 2.03
298.15 K, 101 kPa, x1 = 0.08173 | 2.84
298.15 K, 101 kPa, x1 = 0.135 | 3.11
298.15 K, 101.32 kPa, x1 = 0.0104 | 1.16
298.15 K, 101.32 kPa, x1 = 0.0199 | 1.362
298.15 K, 101.32 kPa, x1 = 0.0677 | 2.567
298.15 K, 101.32 kPa, x1 = 0.1 | 2.959
298.15 K, 101.32 kPa, x1 = 0.1492 | 3.175
298.15 K, 101.32 kPa, x1 = 0.1978 | 2.936
298.15 K, 101.32 kPa, x1 = 0.2959 | 2.342
298.15 K, 101.32 kPa, x1 = 0.4011 | 1.881
298.15 K, 101.32 kPa, x1 = 0.4988 | 1.552
298.15 K, 101.32 kPa, x1 = 0.577 | 1.398
298.15 K, 101.32 kPa, x1 = 0.8569 | 1.084
298.15 K, 101.33 kPa, x1 = 0.0091 | 1.139
298.15 K, 101.33 kPa, x1 = 0.0188 | 1.403
298.15 K, 101.33 kPa, x1 = 0.0295 | 1.691
298.15 K, 101.33 kPa, x1 = 0.051 | 2.246
298.15 K, 101.33 kPa, x1 = 0.0854 | 2.993
298.15 K, 101.33 kPa, x1 = 0.1194 | 3.328
298.15 K, 101.33 kPa, x1 = 0.1604 | 3.232
298.15 K, 101.33 kPa, x1 = 0.2099 | 2.993
298.15 K, 101.33 kPa, x1 = 0.2597 | 2.661
298.15 K, 101.33 kPa, x1 = 0.3028 | 2.389
298.15 K, 101.33 kPa, x1 = 0.3461 | 2.153
298.15 K, 101.33 kPa, x1 = 0.3843 | 1.982
298.15 K, 101.33 kPa, x1 = 0.4327 | 1.791
298.15 K, 101.33 kPa, x1 = 0.4651 | 1.691
298.15 K, 101.33 kPa, x1 = 0.5196 | 1.536
298.15 K, 101.33 kPa, x1 = 0.608 | 1.356
298.15 K, 101.33 kPa, x1 = 0.659 | 1.272
298.15 K, 101.33 kPa, x1 = 0.7695 | 1.145
298.15 K, 101.33 kPa, x1 = 0.8171 | 1.103
298.15 K, 101.33 kPa, x1 = 0.8712 | 1.066
298.15 K, 101.33 kPa, x1 = 0.9453 | 1.024
303.15 K, 101 kPa, x1 = 0.021 | 1.19
303.15 K, 101 kPa, x1 = 0.04611 | 1.71
303.15 K, 101 kPa, x1 = 0.08173 | 2.35
303.15 K, 101 kPa, x1 = 0.135 | 2.62
313.15 K, 101 kPa, x1 = 0.021 | 0.94
313.15 K, 101 kPa, x1 = 0.04611 | 1.27
313.15 K, 101 kPa, x1 = 0.08173 | 1.75
313.15 K, 101 kPa, x1 = 0.135 | 1.93
323.15 K, 101 kPa, x1 = 0.021 | 0.78
323.15 K, 101 kPa, x1 = 0.04611 | 1.01
323.15 K, 101 kPa, x1 = 0.08173 | 1.34
323.15 K, 101 kPa, x1 = 0.135 | 1.46

COC[N+]1(C)CCCC1.O=S(=O)([N-]S(=O)(=O)C(F)(F)F)C(F)(F)F + O
101 kPa, x2 = 0.1527
Conditions | viscosity [mPa·s]
293.15 K | 35.2
298.15 K | 29.4
303.15 K | 24.8
313.15 K | 18.1
323.15 K | 13.8

Oc1ccccc1 + CCCCNCCCC
298.16 K, 101 kPa
Conditions | viscosity [mPa·s]
x1 = 0.5012 | 5.109
x1 = 0.6086 | 13.4
x1 = 0.6558 | 20.06
x1 = 0.6934 | 34.09
x1 = 0.7223 | 46.47
x1 = 0.753 | 64.82
x1 = 0.7713 | 74.82
x1 = 0.7925 | 84.1
x1 = 0.8147 | 89.23
x1 = 0.8446 | 82.1
x1 = 0.875 | 62.86
x1 = 0.8948 | 49.73

COCCOCCOC + CO
viscosity [mPa·s], 100 kPa
Conditions | 293.15 K | 298.15 K | 303.15 K
x2 = 0.056 | 1.064 | 0.984 | 0.903
x2 = 0.1076 | 1.05 | 0.97 | 0.89
x2 = 0.202 | 1.015 | 0.94 | 0.863
x2 = 0.2929 | 0.99 | 0.916 | 0.84
x2 = 0.3965 | 0.951 | 0.882 | 0.808
x2 = 0.4979 | 0.909 | 0.843 | 0.775
x2 = 0.5993 | 0.863 | 0.8 | 0.735
x2 = 0.6891 | 0.814 | 0.756 | 0.693
x2 = 0.7967 | 0.747 | 0.697 | 0.641
x2 = 0.8412 | 0.718 | 0.669 | 0.615
x2 = 0.8996 | 0.674 | 0.629 | 0.578
x2 = 0.948 | 0.637 | 0.595 | 0.546

CC=CC(=O)O + CCOC(C)=O
viscosity [mPa·s], 101 kPa
Conditions | x1 = 0.0495 | x1 = 0.0995 | x1 = 0.1509 | x1 = 0.1971 | x1 = 0.2463 | x1 = 0.2605
298.15 K | 0.4663 | 0.5094 | 0.5447 | 0.5907 | 0.6329 | 0.6467
303.15 K | 0.4417 | 0.4788 | 0.5181 | 0.5583 | 0.5921 | 0.6093
313.15 K | 0.4005 | 0.4309 | 0.4587 | 0.494 | 0.5254 | 0.5496
323.15 K | 0.361 | 0.3895 | 0.413 | 0.4469 | 0.4704 | 0.4917

CCCCCCN + COCCO
308.15 K, 101 kPa
Conditions | viscosity [mPa·s]
x2 = 0.1567 | 0.8278
x2 = 0.2965 | 1.059
x2 = 0.4194 | 1.245
x2 = 0.5291 | 1.381
x2 = 0.6276 | 1.456
x2 = 0.7166 | 1.459
x2 = 0.7973 | 1.434
x2 = 0.8708 | 1.397
x2 = 0.9382 | 1.338
